Measurements from US8178506B2, “Oligomeric compounds and compositions for use in modulation of small non-coding RNAs” (Regulus Therapeutics Inc., priority 2003, dated 2012).
In the oligonucleotide strings, read from the 5' end, every base follows the letter of its sugar. An asterisk marks phosphorothioate; unmarked linkages are phosphodiester. Other units and linkages are bracketed, terminal groups are in braces. A string of capitals states the bases alone. e = 2'-O-(2-methoxyethyl) (MOE); [5mC] = 5-methylcytosine; d = 2'-deoxy (DNA)

Tests used:
ob/ob mice = assay: ob/ob mice: plasma parameters, food consumption, marker gene mRNA; type: in vivo, mouse; conditions: ob/ob mice; for mRNA expression levels of the Glut4, aP2 and HSL marker genes: 25 mg/kg two times per week
Procedure, shortened: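 Male C57Bl/6J ob/ob mice received oligomeric compound or control at 25 mg/kg s.c. twice weekly, for 4 weeks on a 10-15% fat diet or for 6 weeks on high-fat diet. Plasma glucose and insulin were measured at 0, 2 and 4 weeks; i.p. glucose/insulin tolerance tests were run; serum lipids, liver triglycerides and histology were assessed, with liver, BAT and WAT mRNA quantified by real-time PCR.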

BJ cells = assay: Cell cycle assay in BJ cells; type: cell-based, human; conditions: 200 nM, 48 hours, relative to untreated control
Procedure: BJ cells were routinely cultured in MEM high glucose with 2 mM L-glutamine and Earle's BSS adjusted to contain 1.5 g/L sodium bicarbonate and supplemented with 10% fetal bovine serum, 0.1 mM non-essential amino acids and 1.0 mM sodium pyruvate (all media and supplements from Invitrogen Life Technologies, Carlsbad, Calif.). B16-F10 cells were routinely cultured in DMEM high glucose (Invitrogen Life Technologies, Carlsbad, Calif.) supplemented with 10% fetal bovine serum (Invitrogen Life Technologies, Carlsbad, Calif.). T47D cells were cultured in DMEM High glucose media (Invitrogen Life Technologies, Carlsbad, Calif.) supplemented with 10% fetal bovine serum. […] Cells were plated on collagen-coated 24-well plates (Falcon-Primaria #3047, BD Biosciences, Bedford, Mass.) at approximately 50,000 cells per well and allowed to attach to wells overnight.
In further studies, additional cell lines were treated with oligomeric compounds targeted against miRNAs to assess the effects of each oligomeric compound on cell cycling. BJ, B16, T47D, and HeLa cells were cultured and transfected as described above. […] T47Dp53 cells are T47D cells that have been transfected with and selected for maintenance of a plasmid that expresses a wildtype copy of the p53 gene (for example, pCMV-p53; Clontech, Palo Alto, Calif.), using standard laboratory procedures. BJ cells were treated with 200 nM of each oligomeric compound, and T47D, T47Dp53, HeLa, and B16 cells were treated with 150 nM of each oligomeric compound. The human foreskin fibroblast BJ cell line represents a non-cancer cell line, while HeLa, T47D, T47Dp53 cells and the mouse melanoma cell line B16-F10 represent cancerous cell lines. For comparison, oligomeric compounds ISIS 183891 (SEQ ID NO: 847) and ISIS 285717 ([…]; herein incorporated as SEQ ID NO: 857), both targeting the kinesin-like 1/Eg5 mRNA, involved in cell cycling, were used as positive controls. The random-mer ISIS 29848 was used as a negative control. Additionally, the oligomeric compounds ISIS Number 25690 ([…]; herein incorporated as SEQ ID NO: 858) and ISIS Number 25691 ([…]; herein incorporated as SEQ ID NO: 859), targeted to nucleotides 3051-3070 and 3085-3104, respectively, of the mRNA encoding the Drosha RNase III (GenBank Accession NM_013235.2, incorporated herein as SEQ ID NO: 860) were also tested. ISIS Number 25690 and ISIS Number 25691 are 5-10-52′-MOE gapmer compounds, 20 nucleotides in length, with phosphorothioate internucleoside linkages throughout the oligomeric compound. All cytidine residues are 5-methylcytidines. Transfections were performed using the methods described herein. Cells were prepared for flow cytometry 48-hours after oligonucleotide treatment. Results of these studies are shown in Table 35, where data are expressed as percentage of cells in each phase relative to the untreated control cells in that phase.

B16-F10 cells = assay: Cell cycle assay in B16-F10 cells; type: cell-based, mouse; conditions: 150 nM, 48 hours, relative to untreated control
[1] = 25 mg/kg s.c. two times per week, 6 weeks

Substance | plasma cholesterol levels (ob/ob mice; [1]) | plasma glucose levels (fed) (ob/ob mice; [1]) | plasma triglyceride levels (ob/ob mice; [1]) | mRNA expression levels of the Glut4, aP2 and HSL marker genes (ob/ob mice) | % cells in cell cycle phase G1 (BJ cells) [%] | % cells in cell cycle phase G2/M (BJ cells) [%] | % cells in cell cycle phase S (BJ cells) [%] | % cells in cell cycle phase aneuploid (BJ cells) [%] | % cells in cell cycle phase subG1 (BJ cells) [%] | % cells in cell cycle phase G1 (B16-F10 cells) [%] | % cells in cell cycle phase G2/M (B16-F10 cells) [%] | % cells in cell cycle phase S (B16-F10 cells) [%] | % cells in cell cycle phase aneuploid (B16-F10 cells) [%] | % cells in cell cycle phase subG1 (B16-F10 cells) [%] | plasma glucose levels, fasted state (ob/ob mice; day 19)
TGAGCTACAGTGCTTCATCTCA [ISIS 340927] (chemistry not given here) [5-10-7 2′-MOE gapmer PS; targets mature mir-143] | slightly decrease over time | generally slightly lower | generally slightly lower | slightly reduced |  |  |  |  |  |  |  |  |  |  | 
TGAGCTACAGTGCTTCATCTCA [ISIS 327901] (chemistry not given here) [uniform 2′-MOE PS; targets mir-143] |  |  |  | slightly reduced |  |  |  |  |  |  |  |  |  |  | 
328759 (antisense eG*eA*eG*eG*eG*dA*dT*dT*dG*dT*dA*dT*dG*dA*dA*e[5mC]*eA*eT*e[5mC]*eT) [compound 328759] |  |  |  |  | 91 | 141 | 117 | 160 | 164 | 104 | 110 | 91 | 126 | 132 | 
327933 (antisense eA*eA*eG*eG*eG*eA*eT*eT*e[5mC]*e[5mC]*eT*eG*eG*eG*eA*eA*eA*eA*e[5mC]*eT*eG*eG*eA*e[5mC]) [compound 327933] |  |  |  |  |  |  |  |  |  | 109 | 116 | 84 | 130 | 104 | 
ACTTTCGGTTATCTAGCTTTA [ISIS 327892] (chemistry not given here) [uniform 2′-MOE PS; targets mir-131-2/mir-9] |  | reduced beginning at approximately four weeks after the start of treatment |  |  |  |  |  |  |  |  |  |  |  |  | significant reductions in plasma glucose levels
327902 (antisense eG*eG*e[5mC]*eT*eG*eT*e[5mC]*eA*eA*eT*eT*e[5mC]*eA*eT*eA*eG*eG*eT*e[5mC]*eA*eG) [compound 327902] |  |  |  |  | 99 | 108 | 88 | 82 | 91 | 112 | 98 | 88 | 101 | 151 | 
327905 (antisense e[5mC]*eA*eG*eA*e[5mC]*eT*e[5mC]*e[5mC]*eG*eG*eT*eG*eG*eA*eA*eT*eG*eA*eA*eG*eG*eA) [compound 327905] |  |  |  |  | 100 | 109 | 77 | 102 | 105 | 107 | 106 | 89 | 94 | 142 | 
